Legend:
[1] = molecular target: T1, Carbonic Anhydrase II receptor (Homo sapiens, UniProt P00918); test: binding affinity to Carbonic Anhydrase II, from scientific literature; settings: threshold value 5.85
Excerpt: Each compound is given a numerical value indicating its binding affinity. Beside each drawing in Table 1, is a quantitative experimental assessment of binding affinity.
Otherwise, it would be 1.

[2] = molecular target: T1, Carbonic Anhydrase II receptor; settings: example initial data set; cited from earlier work
estrogen receptor = settings: relative binding affinity scale, estradiol = 100; binding at 0 to 4° C.; presumed ER-α; cited from earlier work

SMILES	CLASS (activity class, active/inactive) ([1]; structures as SMILES)	CLASS (activity class, active/inactive) ([1]; structures as drawings)	ACTIVITY (quantitative experimental assessment of binding affinity) [2]	log RBA (estrogen receptor)
CC(=O)Nc1nnc(S(=O)(=O)NC(C)C)s1	0 (If the activity value is less than 5.85, the activity class is 0)	0 (If the activity value is less than 5.85, the activity class is 0)	5.80	–
CNS(=O)(=O)c1cccc(O)c1	1 (Otherwise, it would be 1)	1 (Otherwise, it would be 1)	5.92	–
CC/C(=C(/CC)c1ccc(O)cc1)c1ccc(O)cc1 [DES, desthylstilbestrol]	–	–	–	2.48

Reference: US6691045B1, “Method for determining discrete quantitative structure activity relationships” (Chemical Computing Group Inc., priority 1998, dated 2004)
